The values below are quoted from earlier work in patent publication EP2061448B1, “SUSTAINED RELEASE FORMULATION OF NALTREXONE” (Nalpropion Pharmaceuticals, Inc., priority 2006, dated 2007).

Like-named read-outs stand apart in the source and are kept apart here. Where only a bound is given, the exact number is not on record here.

The conditions of data set [1]: oral administration, immediate release form.
For data set [2] the following is noted: initial 25 mg dose followed by 50 mg daily for 10 weeks.
The test system of data set [3] is pharmacologic effects of 25 mg of intravenously administered heroin.

For `O=C1CC[C@@]2(O)[C@H]3Cc4ccc(O)c5c4[C@@]2(CCN3CC2CC2)[C@H]1O5` [naltrexone, 17-(cyclopropylmethyl)-4,5α-epoxy-3,14-dihydroxymorphinan-6-one], the Tmax result in data set [1] is “approximately 1 hour”. For the same molecule, the “Moderate to severe nausea, patients” value in data set [2] is given as 15%.
For the molecule naltrexone hydrochloride, in data set [3] (50 mg of naltrexone hydrochloride, 25 mg of intravenously administered heroin), the “period of block of the pharmacologic effects of heroin” value is on record as at most 24 hours. Moreover, the values for the duration of blockade in data set [3] (doubling the dose of naltrexone hydrochloride) and in data set [3] (tripling the dose of naltrexone hydrochloride) were 48 h and “about 72 hours”, respectively.
